Experimental data published in patent US10941157B2, “Pesticidal compositions and uses thereof” (Gilead Apollo, LLC, priority 2015, dated 2021).
Converted amounts (≈) assume the structure as drawn.

Experiments:
Fusarium graminearum = assay type: in vivo; conditions: spray on flowering Triticum aestivum cv. Samson, inoculated 24 hours after treatment, evaluated 14 days later
[1] = test system: Fusarium moniliforme (Fm); test: In vitro pathogen growth inhibition assay, Fm; assay type: cell-based; conditions: Fusarium verticillioides; ≥90% inhibition; 48 hours vs 2% DMSO control; read-out: Compound Concentration (ppm) sufficient for ≥90% inhibition of growth, Fm
Outline: (§1)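 Spores in 17% V8 liquid medium, or 1.5 mm Rs mycelial plugs in ¼ PDB, incubated with compound; final concentration checked by OD600 for precipitation. OD readings at 24 and 48 h, blank-subtracted, plus visual ratings; value is concentration giving ≥90% growth inhibition.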

Diplodia maydis (Dm) = test: In vitro pathogen growth inhibition assay, Dm; assay type: cell-based; conditions: Stenocarpella maydis, 48 h, ≥90% inhibition; 48 hours vs 2% DMSO control; read-out: Compound Concentration (ppm) sufficient for ≥90% inhibition of growth, Dm
Outline: (§2)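 Value reported is the compound concentration reaching ≥90% growth inhibition, from OD readings at 24 and 48 h after blank subtraction, confirmed visually. Inoculum was spores diluted in 17% V8 medium, except Rs, using 1.5 mm mycelial plugs in ¼ PDB; actual compound concentration corrected via OD600.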

[2] = test system: Saccharomyces cerevisiae (Sc); test: Yeast growth inhibition assay; assay type: cell-based; conditions: Saccharomyces cerevisiae, ≥75% inhibition, read-out: Compound Concentration (ppm) sufficient for ≥75% inhibition, Sc
Method: Both tables list the concentration of each compound that was sufficient to ≥90% inhibition of growth for each of the fungal pathogens listed above. In addition, some of compounds were tested in a yeast growth inhibition assay for Saccharomyces cerevisiae (Sc). Table 2 lists the concentration of the tested compound that was sufficient to ≥75% inhibition of Saccharomyces cerevisiae (Sc).

Phakopsora pachyrhizi = test: Foliar protection test for Asian soybean rust control; assay type: in vivo; conditions: foliar application to soybean (Glycine max AG4832), percent disease area evaluated 14 days later
[3] = test system: Fusarium virguliforme (Fv); test: In vitro pathogen growth inhibition assay, Fv; assay type: cell-based; conditions: ≥90% inhibition, 48 hours vs 2% DMSO control, read-out: Compound Concentration (ppm) sufficient for ≥90% inhibition of growth, Fv
Outline: as §2

Sphaerotheca fuliginea = test: Foliar protection for cucumber powdery mildew control; assay type: in vivo; conditions: foliar spray on Cucumis sativus cv. Straight Eight, inoculated 24 hours after treatment, evaluated 7 days later
Outline: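 Cucumber plants (cv. Straight Eight, 10 days old) sprayed to wetness on both leaf surfaces, then inoculated 24 h later by shaking sporulating stock plants over them. Held at 23–27 °C, 16 h light, 60% RH. Mildew colonization scored 7 days after inoculation, at compound concentrations of 10 ppm or lower.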

Rhizoctonia solani (Rs) = test: In vitro pathogen growth inhibition assay, Rs (mycelial plugs); assay type: cell-based; conditions: Rhizoctonia solani, 48 h, ≥90% inhibition; mycelial plugs; 48 hours vs 2% DMSO control; read-out: Compound Concentration (ppm) sufficient for ≥90% inhibition of growth, Rs
Outline: as §2

[4] = test system: Collectotrichum graminicola (Cg); test: In vitro pathogen growth inhibition assay, Cg; assay type: cell-based; conditions: 48 h, ≥90% inhibition; 48 hours vs 2% DMSO control; read-out: Compound Concentration (ppm) sufficient for ≥90% inhibition of growth, Cg
Outline: as §1

Botrtyis cinerea (Bc) = test: In vitro pathogen growth inhibition assay, Bc; assay type: cell-based; conditions: 48 h, ≥90% inhibition; 48 hours vs 2% DMSO control; read-out: Compound Concentration (ppm) sufficient for ≥90% inhibition of growth, Bc
Outline: as §1

[5] = test system: Blumeria graminis f. sp. hordei; test: Foliar protection test for barley powdery mildew control; assay type: in vivo; conditions: foliar spray on Hordeum vulgare cv. Perry, inoculated 24 hours after treatment, evaluated 7 days later
Outline: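 Six-day-old barley (cv. Perry) sprayed to wetness on both leaf sides; 24 h later inoculated by shaking spores from infected stock plants. Kept at 20 to 22° C, 70% relative humidity; mildew colonization assessed 7 days later.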

[6] = test system: Phytophthora capsici (Pc); test: In vitro pathogen growth inhibition assay, Pc; assay type: cell-based; conditions: 48 h, ≥90% inhibition, 48 hours vs 2% DMSO control, read-out: Compound Concentration (ppm) sufficient for ≥90% inhibition of growth, Pc
Outline: as §2

Puccinia triticina = test: Foliar protection test for wheat leaf rust control; assay type: in vivo; conditions: foliar application to wheat (Triticum aestivum cv. Winterhawk), evaluated 10 days later
Septoria tritici (St) = test: In vitro pathogen growth inhibition assay, St; assay type: cell-based; conditions: Zymoseptoria tritici, 48 h, ≥90% inhibition; 48 hours vs 2% DMSO control; read-out: Compound Concentration (ppm) sufficient for ≥90% inhibition of growth, St
Outline: as §1

[7] = test system: Mycosphaerella graminicola (synthetic Septoria tritici); test: Foliar protection test for wheat septoria leaf blotch control; assay type: in vivo; conditions: foliar spray on Triticum aestivum cv. WinterHawk, inoculated 1 hour after treatment, evaluated 16 days later
Pythium ultimum = test: Seed protectant for soybean seedling disease, P. ultimum; assay type: in vivo; conditions: soybean from treated seeds, 0.025 mg/seed, P. ultimum inoculated
Method: (§3) The pathogen of Rhizoctonia solani inoculum was grown on sterile sorghum; and the pathogen of Pythium ultimum inoculum was grown on white millet.
(§4) Soybean seeds (Glycine max cv. AG4832) were planted in 2.5-inch square pots containing Berger BM2 germination mix amended with fertilizer (e.g., 14-14-14). Pots with soil were inoculated with the pathogen of R. solani or P. ultimum at time of planting. A hole was pressed into the soil to a depth of about 2 to 3 cm; the inoculum was added to the hole, followed by the seed which was then covered with soil. Two seeds per pot were planted. Plants were grown in a growth chamber at conditions of 20 to 24° C., 14 hour light cycle, 500 uM of light, and 65% humidity. The pots inoculated with P. ultimum were sub-irrigated every day; and the pots inoculated with R. solani were sub-irrigated every other day.
(§5) Seedling emergence was captured at 7 and 14 days after seeding. At 14 days, the top of the plant was removed and fresh weight was recorded. The plant weights from the seeds treated with test compounds (e.g., in formulations) were compared to the ones either from the inoculated non-treated seeds or non-inoculated non-treated seeds. Table 10 lists the results of the R. solani control in soybean upon seed treatment with test compounds, and Table 11 lists the results of the P. ultimum control in soybean upon seed treatment with test compounds, respectively.

Rhizoctonia solani = test: Seed protectant for soybean seedling disease, R. solani; assay type: in vivo; conditions: soybean from treated seeds, 0.025 mg/seed, R. solani inoculated
Method: as §3, §4, §5

[8] = percentage of non-inoculated non-treated controls

SMILES	Wheat Fusarium Head Blight Control at a compound concentration of 25 ppm or lower (Fusarium graminearum)	IC90 [1] [µg/mL]	IC90 (Diplodia maydis (Dm)) [µg/mL]	IC75 [2] [µg/mL]	Asian Soybean Rust Control at a compound concentration of 25 ppm or lower (Phakopsora pachyrhizi)	IC90 [3] [µg/mL]	Cucumber Powdery Mildew Control at a compound concentration of 10 ppm or lower (Sphaerotheca fuliginea)	IC90 (Rhizoctonia solani (Rs)) [µg/mL]	IC90 [4] [µg/mL]	IC90 (Botrtyis cinerea (Bc)) [µg/mL]	Barley Powdery Mildew Control at a compound concentration of 10 ppm or lower [5]	IC90 [6] [µg/mL]	Wheat Leaf Rust Control at a compound concentration of 10 ppm or lower (Puccinia triticina)	IC90 (Septoria tritici (St)) [µg/mL]	Septoria Leaf Blotch Control at a compound concentration of 25 ppm or lower [7]	Plant Weight (Pythium ultimum; fresh weight at 14 days) [g]	Improvement in plant weight (Pythium ultimum; [8]) [%]	Plant Weight (Rhizoctonia solani; fresh weight at 14 days) [g]	Improvement in plant weight (Rhizoctonia solani; [8]) [%]
CCOC(=O)c1sc2c(c1C)c(=O)n(C(C)(C)C(=O)N1CCCC1)c(=O)n2C[C@H](OC1CCOCC1)c1ccccc1OC [Compound I-003, (R)-ethyl-1-(2-(2-methoxyphenyl)-2-((tetrahydro-2H-pyran-4-yl)oxy)ethyl)-5-methyl-3-(2-methyl-1-oxo-1-(pyrrolidin-1-yl)propan-2-yl)-2,4-dioxo-1,2,3,4-tetrahydrothieno[2,3-d]pyrimidine-6-carboxylate]	B (from 50 to 69% control of wheat fusarium head blight)	0.08 (≈ 0.127 µM)	2 (≈ 3.19 µM)	0.4 (≈ 0.637 µM)	A (from 70% to 84% control of Asian soybean rust)	0.4 (≈ 0.637 µM)	AA (≥85% control of cucumber powdery mildew)	0.4 (≈ 0.637 µM)	0.4 (≈ 0.637 µM)	2 (≈ 3.19 µM)	A (from 70% to 84% control of barley powdery mildew)	> 50	AA (≥85% control of wheat leaf rust)	≥ 10	C (from 25 to 49% control of wheat septoria leaf blotch)	–	–	–	–
COc1ccc(F)cc1[C@H](Cn1c(=O)n(C(C)(C)C(=O)NC(C)C)c(=O)c2c(C)c(-n3cccn3)sc21)OC(C)C [Compound I-014, (R)-2-(1-(2-(5-fluoro-2-methoxyphenyl)-2-isopropoxyethyl)-5-methyl-2,4-dioxo-6-(1H-pyrazol-1-yl)-1,4-dihydrothieno[2,3-d]pyrimidin-3(2H)-yl)-N-isopropyl-2-methylpropanamide]	C (from 25 to 49% control of wheat fusarium head blight)	0.08 (≈ 0.137 µM)	2 (≈ 3.41 µM)	1.2 (≈ 2.05 µM)	A (from 70% to 84% control of Asian soybean rust)	0.4 (≈ 0.683 µM)	AA (≥85% control of cucumber powdery mildew)	2 (≈ 3.41 µM)	2 (≈ 3.41 µM)	0.4 (≈ 0.683 µM)	AA (≥85% control of barley powdery mildew)	> 50	A (from 70% to 84% control of wheat leaf rust)	> 10	D (<25% control of wheat septoria leaf blotch)	–	–	–	–
COc1ccc(F)cc1[C@H](Cn1c(=O)n(C(C)(C)C(=O)NC(C)C)c(=O)c2c(C)c(-n3nccn3)sc21)OCCO [Compound I-064, (R)-2-(1-(2-(5-fluoro-2-methoxyphenyl)-2-(2-hydroxyethoxy)ethyl)-5-methyl-2,4-dioxo-6-(2H-1,2,3-triazol-2-yl)-1,4-dihydrothieno[2,3-d]pyrimidin-3 (2H)-yl)-N-isopropyl-2-methylpropanamide]	C (from 25 to 49% control of wheat fusarium head blight)	0.08 (≈ 0.136 µM)	0.4 (≈ 0.68 µM)	–	A (from 70% to 84% control of Asian soybean rust)	0.4 (≈ 0.68 µM)	AA (≥85% control of cucumber powdery mildew)	≥ 0.08	0.4 (≈ 0.68 µM)	2 (≈ 3.4 µM)	A (from 70% to 84% control of barley powdery mildew)	≥ 2	AA (≥85% control of wheat leaf rust)	≥ 2	A (from 70% to 84% control of wheat septoria leaf blotch)	5.49	88	6.41	79.9
